Experimental findings from patent publication US10123998B2, “Kinase modulation, and indications therefor” (Plexxikon Inc., priority 2012, dated 2018) are described below.

For the first assay, the system named is Osteoclast precursor cells. Kind of assay: Osteoclast differentiation assay. Format: cell-based.
Conditions: not given
As for the experimental part:
Further, an osteoclast differentiation assay is used to assess the efficacy of Fms inhibitors for treating bone disease such as osteoarthritis. On day 0, Osteoclast Medium BulletKit (Lonza catalog # PT-8001, containing Media, FBS, L-Glutamine, PenStrep, RANKL, and M-CSF) media is thawed and the FBS, L-glutamine and PenStrep from the kit is added to 100 mL of Osteoclast Precursor Basal medium to provide the Osteoclast Precursor Growth Medium (OPGM). This is warmed to 37° C. Osteoclast precursor cells (Lonza catalog #2T-110) frozen in cryovial are warmed to 37° C. and transferred to a 50 mL conical tube. The cryovial is rinsed with OPGM and added dropwise to the conical tube of cells with swirling, then the volume is adjusted to 20-30 mL with addition of OPGM. The cells are centrifuged at 200×g for 15 minutes at room temperature and all but approximately 3 mL of supernatant is removed to a new conical tube. The cells are suspended in the remaining supernatant and the volume is adjusted to 10-15 mL with OPGM added dropwise with swirling. The cells are centrifuged at 200×g for 15 minutes at room temperature and all but approximately 1 mL of supernatant is removed. The cells are resuspended in the remaining supernatant, counted, and the volume adjusted with an appropriate amount of OPGM to provide approximately 1×10^5 cells/mL. A 0.1 mL aliquot of cells is added to each well of a 96-well plate. Compound to be tested is prepared in DMSO for plating at a high concentration of 2.5 mM, with 8 point 1:3 serial dilutions. A 1 μL aliquot of each compound dilution is added to a 96 well v-bottom polypropylene plate and 0.124 mL of OPGM is added to the compound. Then 50 μL of the compound in OPGM is added to the osteoclast precursor cells in 96-well plate (providing highest test concentration of 5 μM). RANKL (2 μg) from the BulletKit is reconstituted in 1 mL of OPGM, then vortexed and centrifuged briefly. A 792 μL aliquot of RANKL is added to 6 mL of OPGM and 50 μL is added to low control wells. Then 76.6 μL M-CSF ([…]) from the BulletKit is added to the remaining 5.8 mL of OPGM/RANKL solution (4×RANKL/M-CSF/OPGM). A 50 μL aliquot of this is added to the remaining wells, and the remainder is stored at 4° C. for later use. The plate is incubated at 37° C. for 6 days, then the remaining OPGM/RANKL/M-CSF solution is warmed to 37° C. The remaining approximately 198 μL is combined with 6 mL of OPGM. The media is aspirated from the osteoclast wells and 100 μL of RANKL/OPGM is added to the low controls. The remaining RANKL/OPGM is combined with the approximately 18.5 μL of remaining M-CSF. The remaining 4×RANKL/M-CSF/OPGM from day 0 is diluted to 1× and combined with the freshly prepared solution. A 0.1 mL aliquot of this is added to each osteoclast well and incubated for 37° C. for 1 day. The Acid Phosphatase kit (Cayman Chemical catalog #10008051) is warmed to room temperature. The assay buffer is diluted 5 mL with 45 mL of water. For each plate, two substrate tablets are dissolved in 4.5 mL of the assay buffer, mixing by vortex to break up the tablet. Stop solution is diluted 12 mL with 36 mL of water. In a tissue culture hood, 20 μL of each osteoclast well supernatant is transferred to a 96 well plate. A 30 μL aliquot of the substrate solution is added to each well and incubated at 37° C. for 20 minutes, then added […] stop solution to each well. The absorbance of each well is read at 405 nm on Safire plate reader. The absorbance reading is plotted vs. concentration to provide the IC50 for each compound.
On to `COc1ncc(CNc2ccc(Cc3c[nH]c4ncc(C)cc34)c(F)n2)cc1F` [Compound P-2048, (5-Fluoro-6-methoxy-pyridin-3-ylmethyl)-[6-fluoro-5-(5-methyl-1H-pyrrolo[2,3-b]pyridin-3-ylmethyl)-pyridin-2-yl]-amine], for which the IC50 (commonly the concentration needed to halve the response being measured) was under 100 nM. Still for that read-out and setting: with `COc1ncc(F)cc1CNc1ccc(Cc2c[nH]c3ncc(C)cc23)c(F)n1` [Compound P-2049, (5-Fluoro-2-methoxy-pyridin-3-ylmethyl)-[6-fluoro-5-(5-methyl-1H-pyrrolo[2,3-b]pyridin-3-ylmethyl)-pyridin-2-yl]-amine] the figure was under 100 nM; with `COc1ncccc1CNc1ccc(Cc2c[nH]c3ncc(C)cc23)c(F)n1` [Compound P-2052, [6-Fluoro-5-(5-methyl-1H-pyrrolo[2,3-b]pyridin-3-ylmethyl)-pyridin-2-yl]-(2-methoxy-pyridin-3-ylmethyl)-amine], under 100 nM; with `COc1ccc(CNc2ncc(Cc3c[nH]c4ncc(C)cc34)cn2)cn1` [Compound P-2057, (6-Methoxy-pyridin-3-ylmethyl)-[5-(5-methyl-1H-pyrrolo[2,3-b]pyridin-3-ylmethyl)-pyrimidin-2-yl]-amine], under 100 nM. The same measure, in the same setting: the value for `COc1ncc(F)cc1CNc1ncc(Cc2c[nH]c3ncc(C)cc23)cn1` [Compound P-2061, (5-Fluoro-2-methoxy-pyridin-3-ylmethyl)-[5-(5-methyl-1H-pyrrolo[2,3-b]pyridin-3-ylmethyl)-pyrimidin-2-yl]-amine] was under 100 nM; that for `FC(F)(F)c1ccncc1CNc1ccc(Cc2c[nH]c3ncc(Cl)cc23)cn1` [Compound P-2063, [5-(5-Chloro-1H-pyrrolo[2,3-b]pyridin-3-ylmethyl)-pyridin-2-yl]-(4-trifluoromethyl-pyridin-3-ylmethyl)-amine] was under 100 nM. Take `COc1ncc(F)cc1CNc1ncc(Cc2c[nH]c3ncc(Cl)cc23)cn1` [Compound P-2064, [5-(5-Chloro-1H-pyrrolo[2,3-b]pyridin-3-ylmethyl)-pyrimidin-2-yl]-(5-fluoro-2-methoxy-pyridin-3-ylmethyl)-amine]: the half-inhibitory concentration (IC50) was under 100 nM. In turn, `Cc1cnc2[nH]cc(Cc3ccc(NCc4cnccc4C(F)(F)F)nc3)c2c1` [Compound P-2070, [5-(5-Methyl-1H-pyrrolo[2,3-b]pyridin-3-ylmethyl)-pyridin-2-yl]-(4-trifluoromethyl-pyridin-3-ylmethyl)-amine] returned an IC50 of under 100 nM.

The molecule `Cc1cnc2[nH]cc(Cc3cnc(NCc4ccc(C(F)(F)F)nc4)c(F)c3)c2c1` [Compound P-2146, [3-Fluoro-5-(5-methyl-1H-pyrrolo[2,3-b]pyridin-3-ylmethyl)-pyridin-2-yl]-(6-trifluoromethyl-pyridin-3-ylmethyl)-amine] gave an IC50 of under 100 nM.

`COc1cnc2[nH]cc(Cc3cnc(NCc4ccc(C(F)(F)F)nc4)c(F)c3)c2c1` [Compound P-2147, [3-Fluoro-5-(5-methoxy-1H-pyrrolo[2,3-b]pyridin-3-ylmethyl)-pyridin-2-yl]-(6-trifluoromethyl-pyridin-3-ylmethyl)-amine]: the IC50 was under 100 nM. Same read-out and setting: the value for `Cn1cc(F)cc(CNc2ncc(Cc3c[nH]c4ncc(Cl)cc34)cn2)c1=O` [Compound P-2157, 3-{[5-(5-Chloro-1H-pyrrolo[2,3-b]pyridin-3-ylmethyl)-pyrimidin-2-ylamino]-methyl}-5-fluoro-1-methyl-1H-pyridin-2-one] was under 100 nM; that for `COc1ncc(CNc2ccc(Cc3c[nH]c4ncc(Cl)cc34)c(F)n2)cc1F` [Compound P-2165, [5-(5-Chloro-1H-pyrrolo[2,3-b]pyridin-3-ylmethyl)-6-fluoro-pyridin-2-yl]-(5-fluoro-6-methoxy-pyridin-3-ylmethyl)-amine] was under 100 nM; that for `Fc1cncc(CNc2ncc(Cc3c[nH]c4ncc(Cl)cc34)cn2)c1` [Compound P-2176, [5-(5-Chloro-1H-pyrrolo[2,3-b]pyridin-3-ylmethyl)-pyrimidin-2-yl]-(5-fluoro-pyridin-3-ylmethyl)-amine] was under 100 nM.

`COc1ncc(F)cc1CNc1ccc(Cc2c[nH]c3ncc(C#N)cc23)c(F)n1` [Compound P-2193, 3-{2-Fluoro-6-[(5-fluoro-2-methoxy-pyridin-3-ylmethyl)-amino]-pyridin-3-ylmethyl}-1H-pyrrolo[2,3-b]pyridine-5-carbonitrile] displayed an IC50 of under 100 nM.

A further assay has as its system PLP139-151-induced relapsing-remitting EAE. Kind of assay: PLP139-151-induced relapsing-remitting EAE. The settings on record: mouse, in vivo. Further details: species or system SJL mice. As for the experimental part: Method: CSF-1R inhibitors as described herein were tested in mouse relapsing-remitting multiple sclerosis (MS) model. […] Female […] mice 6 weeks old were purchased from Harlan and maintained for 1 week prior to beginning the experiment. Mice were randomly assigned into groups of 10 animals (plus the additional mice per group to be used for histology), and primed with 50 μg PLP139-151/CFA on Day 0. On Day 16-20 post disease induction (onset of remission), the experimental compounds in dose groups 2 and 3 were administered daily via gavage to the groups for a period of 3 weeks (with the final treatment on ˜Day 37-41 post disease induction). On Day 10 post disease induction (disease onset) treatment of group 4 began, and continued to the same day as groups 2 and 3 (˜Day 37-41 post disease induction). After administration of the test compounds, the mice were followed until Day 45 to assess clinical disease, delayed type hypersensitivity (DTH), and various in vitro immunological assays. Histological signs of disease at various time points during the disease course were also assessed. […]
For the molecule `CCCCCCCCc1ccc(CCC(N)(CO)CO)cc1` [FTY-720], the “clinical scores after discontinuation of therapy” value is recorded as “rapid rebound of clinical scores”.
